According to US10258583B2, “Extended release liquid compositions of guanfacine” (SUN PHARMACEUTICAL INDUSTRIES LIMITED, priority 2014, dated 2019):

Legend:
[1] = cited from earlier work
[2] = Osmolality measurements (Osmomat 030-D); type: physicochemical; settings: samples of composition prepared as per Example 13
From the text: The term “osmolality,” as used herein, means the number of moles of any water-soluble compound per kg of the carrier. In the present invention, the osmolality may be measured according to known methods, such as using a Vapor pressure Osmometer, a Colloid Osmometer, or a Freezing Point Depression Osmometer such as Osmomat® 030-D or Osmomat® 3000, in particular by a Freezing Point Depression Osmometer. In the present invention, pharmaceutically acceptable carrier has an osmolality of about 1 osmol/kg or more than about 1 osmol/kg of the pharmaceutically acceptable carrier.
The term “osmolality ratio,” as used herein, means the ratio of osmolality of the external phase to the osmolality of the internal phase. […]
Xylitol, microcrystalline cellulose-sodium carboxymethyl cellulose, xanthan gum, strawberry flavor, sucralose, citric acid, methyl paraben, propyl paraben and colloidal silicon dioxide, purified water were mixed as per Example 13. This suspension was then filtered and diluted with purified water, and the osmolality of the external phase was measured using Osmomat 030-D.
Various solutions having various concentrations of sodium chloride were prepared as per Examples (A)-(D). The osmolalities of these solutions were measured using Osmomat 030-D.
Sodium chloride was dissolved in purified water as per Examples A-D. The osmolality of these solutions were measured using Osmomat 030-D.

[3] = pH dependent degradation profile - solution state stability; type: physicochemical
From the text: Guanfacine, particularly guanfacine hydrochloride, is found to degrade at high pH values. […] One of the major impurity of guanfacine is 2,6-dichlorophenyl acetic acid. [table]

For Cl.N=C(N)NC(=O)Cc1c(Cl)cccc1Cl [Guanfacine hydrochloride, N-amidino-2-(2,6-dichlorophenyl)-acetamide monohydrochloride], the solubility in acetone ([1]; acetone) is listed as “slightly soluble”, the solubility in alcohol ([1]; alcohol) is listed as “sparingly soluble” and the solubility in water ([1]; water) is listed as “approximately 1 mg/mL”. For the same compound, the Osmolality [2] was 0.006 OSMOL/Kg, the “% Assay” value ([3]; pH 1.2, 0 hours) was 101.2% and the “% Assay” value ([3]; pH 1.2, 1 hour) was 101.2%. For the same compound, the “% Assay” value ([3]; pH 1.2, 4 hours) was 101.2%, the “% Assay” value ([3]; pH 1.2, 8 hours) was 101.1% and the “% Assay” value ([3]; pH 1.2, 16 hours) was 101.6%. The “% Assay” value ([3]; pH 1.2, 24 hours) was 101.4%, the “% Assay” value ([3]; pH 2.2, 0 hours) was 100.3% and the “% Assay” value ([3]; pH 2.2, 1 hour) was 100.5%. The “% Assay” value ([3]; pH 2.2, 4 hours) was 100.4%, the “% Assay” value ([3]; pH 2.2, 8 hours) was 100.4% and the “% Assay” value ([3]; pH 2.2, 16 hours) was 100.3%. The “% Assay” value ([3]; pH 2.2, 24 hours) was 100.2%, the “% Assay” value ([3]; pH 4.5, 0 hours) was 99.4% and the “% Assay” value ([3]; pH 4.5, 1 hour) was 99.0%. The “% Assay” value ([3]; pH 4.5, 4 hours) was 98.7%, the “% Assay” value ([3]; pH 4.5, 8 hours) was 98.9% and the “% Assay” value ([3]; pH 4.5, 16 hours) was 98.7%. For the same compound, the “% Assay” value ([3]; pH 4.5, 24 hours) was 98.5%, the “% Assay” value ([3]; pH 6.8, 0 hours) was 99.5% and the “% Assay” value ([3]; pH 6.8, 1 hour) was 99.0%. The “% Assay” value ([3]; pH 6.8, 4 hours) was 97.2%, the “% Assay” value ([3]; pH 6.8, 8 hours) was 93.7% and the “% Assay” value ([3]; pH 6.8, 16 hours) was 86.3%. The “% Assay” value ([3]; pH 6.8, 24 hours) was 79.9%, the “% Assay” value ([3]; pH 7.5, 0 hours) was 100.9% and the “% Assay” value ([3]; pH 7.5, 1 hour) was 99.9%. For the same compound, the “% Assay” value ([3]; pH 7.5, 4 hours) was 97.1%, the “% Assay” value ([3]; pH 7.5, 8 hours) was 92.2% and the “% Assay” value ([3]; pH 7.5, 16 hours, listed as guanfacine, monohydrochloride) was 84%. The “% Assay” value ([3]; pH 7.5, 16 hours, monohydrochloride) was 84.0% and the “% Assay” value ([3]; pH 7.5, 24 hours) was 77.5%.
